Patent US8759520B2, “Compounds for treating cancer” (Boehringer Ingelheim International GmbH, priority 2008, dated 2014)
pIC50: −log10 of the molar value.

These compounds were tested against Bcl-2 (Homo sapiens, UniProt P10415) (assay: Homogeneous HTS assay for inhibitors of the Bcl-2 : Bak (72-87) BH3 domain interaction, fluorescence polarisation (2D-FIDA)). Details: not given.
Bcl-2, sequence (P10415 whole entry, species assumed, the tested form may be a part): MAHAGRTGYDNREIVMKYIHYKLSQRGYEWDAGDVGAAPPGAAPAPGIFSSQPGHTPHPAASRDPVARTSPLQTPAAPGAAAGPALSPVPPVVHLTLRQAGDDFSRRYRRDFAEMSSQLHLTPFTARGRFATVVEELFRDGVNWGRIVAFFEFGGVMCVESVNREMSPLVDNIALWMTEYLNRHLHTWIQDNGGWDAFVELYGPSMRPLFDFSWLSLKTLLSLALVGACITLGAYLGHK
Type: binding
Text: FIG. 1 is a schematic drawing of the Bcl-2: Bak (72-87) interaction assay based on fluorescence polarisation.
The homogeneous HTS assay for inhibitors of the Bcl-2 is shown schematically in FIG. 1. BH3 domain interaction is based on fluorescence polarisation. The inherent rotational diffusion of the Bak BH3 domain derived fluorescent labelled peptide decreases upon binding to Bc1-2. This shift in rotational diffusion is quantitated using the two-dimensional fluorescence intensity distribution analysis (2D-FIDA; Kask et al. 2000, Biophys. J. 78: 1703-1713).
Two different BH3 domain derived peptide ligands were synthesised and subsequently fluorescently labelled: • a 16mer peptide covering amino acids 72-87 of the Bak protein; this peptide had been used by Wang and co-workers and Holinger and coworkers in their Bcl-2 protein binding studies; Wang and co-workers reported an equilibrium binding constant KD of ˜0.2 μM to Bcl-2 protein; • peptide sequence: GQVGRQLAIIGDDINR—N (Wang et al. 2002, Proc. Natl. Acad. Sci. U.S.A. 97: 7124-7129; Holinger et al. 1999, J. Biol. Chem. 274: 13298-13304).
N=c1n(CCCOc2ccc(F)cc2)c2ccccc2n1Cc1ccc(Cl)nc1 [Compound 52, 1-(6-Chloro-pyridin-3-ylmethyl)-3-[3-(4-fluoro-phenoxy)-propyl]-1,3-dihydro-benzoimidazol-2-ylideneamine] gave a pIC50 of 4.00 to 4.96.

Same assay, conditions: fluorescence polarisation, fluorescent labelled Bak BH3 domain derived peptide; read-out: IC50 [μM] Bcl-2
With N=c1n(CCCOc2ccc(F)cc2)c2ccccc2n1Cc1csc(Cl)n1 [Compound 34, 1-(2-Chloro-thiazol-4-ylmethyl)-3-[3-(4-fluoro-phenoxy)-propyl]-1,3-dihydro-benzoimidazol-2-ylideneamine] the IC50 was 11 to 100 µM. For N=c1n(CCCOc2ccc(F)cc2)c2ccccc2n1Cc1csc(N2CCN(Cc3ccccc3-c3ccccc3)CC2)n1 [Compound 35, 1-[2-(4-Biphenyl-2-ylmethyl-piperazin-1-yl)-thiazol-4-ylmethyl]-3-[3-(4-fluoro-phenoxy)-propyl]-1,3-dihydro-benzoimidazol-2-ylideneamine], the IC50 was less than 10 µM. In the case of N=c1n(CCCOc2ccc(F)cc2)c2ccccc2n1Cc1csc(N2CCN(Cc3ccccc3-c3ccc(Cl)cc3)CC2)n1 [Compound 36, 1-{2-[4-(4′-Chloro-biphenyl-2-ylmethyl)-piperazin-1-yl]-thiazol-4-ylmethyl}-3-[3-(4-fluoro-phenoxy)-propyl]-1,3-dihydro-benzoimidazol-2-ylideneamine], the IC50 was less than 10 µM. Compound CC1(C)CCC(c2ccc(Cl)cc2)=C(CN2CCN(c3nc(Cn4c(=N)n(CCCOc5ccc(F)cc5)c5ccccc54)cs3)CC2)C1 [Compound 37, 1-(2-{4-[2-(4-Chloro-phenyl)-5,5-dimethyl-cyclohex-1-enylmethyl]-piperazin-1-yl}-thiazol-4-ylmethyl)-3-[3-(4-fluoro-phenoxy)-propyl]-1,3-dihydro-benzoimidazol-2-ylideneamine] has an IC50 of less than 10 µM. N=c1n(CCCOc2ccc(F)cc2)c2ccccc2n1Cc1ccccc1N1CCN(Cc2ccccc2-c2ccccc2)CC1 [Compound 38, 1-[2-(4-Biphenyl-2-ylmethyl-piperazin-1-yl)-benzyl]-3-[3-(4-fluoro-phenoxy)-propyl]-1,3-dihydro-benzoimidazol-2-ylideneamine] showed an IC50 of less than 10 µM. N=c1n(CCCOc2ccc(F)cc2)c2ccccc2n1Cc1ccc(CN2CCN(Cc3ccc(Cl)cc3)CC2)cc1 [Compound 39, 1-{4-[4-(4-Chloro-benzyl)-piperazin-1-ylmethyl]-benzyl}-3-[3-(4-fluoro-phenoxy)-propyl]-1,3-dihydro-benzoimidazol-2-ylideneamine] was tested, and the IC50 was 11 to 100 µM. N=c1n(CCCOc2ccc(F)cc2)c2ccccc2n1Cc1ccc(CN2CCN(c3ccccc3)CC2)cc1 [Compound 40, 1-[3-(4-Fluoro-phenoxy)-propyl]-3-[4-(4-phenyl-piperazin-1-ylmethyl)-benzyl]-1,3-dihydro-benzoimidazol-2-ylideneamine] showed an IC50 of 11 to 100 µM. With N=c1n(CCCOc2ccc(F)cc2)c2ccccc2n1Cc1ccc(CN2CCN(c3cccc(Cl)c3)CC2)cc1 [Compound 41, 1-{4-[4-(3-Chloro-phenyl)-piperazin-1-ylmethyl]-benzyl}-3-[3-(4-fluoro-phenoxy)-propyl]-1,3-dihydro-benzoimidazol-2-ylideneamine] the IC50 was 11 to 100 µM. N=c1n(CCCOc2ccc(F)cc2)c2ccccc2n1Cc1ccc(CN2CCN(c3ccc(Cl)cc3)CC2)cc1 [Compound 42, 1-{4-[4-(4-Chloro-phenyl)-piperazin-1-ylmethyl]-benzyl}-3-[3-(4-fluoro-phenoxy)-propyl]-1,3-dihydro-benzoimidazol-2-ylideneamine] showed an IC50 of 11 to 100 µM. Compound N=c1n(CCCOc2ccc(F)cc2)c2ccccc2n1Cc1ccc(CNCC(=O)Nc2ccccc2Cl)cc1 [Compound 43, N-(2-Chloro-phenyl)-2-(4-{3-[3-(4-fluoro-phenoxy)-propyl]-2-imino-2,3-dihydro-benzoimidazol-1-ylmethyl}-benzylamino)-acetamide] has an IC50 of 11 to 100 µM. N=c1n(CCCOc2ccc(F)cc2)c2ccccc2n1Cc1ccc(CN2CCN(c3ccccc3Cl)CC2)cc1 [Compound 44, 1-{4-[4-(2-Chloro-phenyl)-piperazin-1-ylmethyl]-benzyl}-3-[3-(4-fluoro-phenoxy)-propyl]-1,3-dihydro-benzoimidazol-2-ylideneamine] showed an IC50 of 11 to 100 µM. Work on N=c1n(CCCOc2ccc(F)cc2)c2ccccc2n1Cc1ccc(CNCC(=O)Nc2ccc(Cl)cc2)cc1 [Compound 45, N-(4-Chloro-phenyl)-2-(4-{3-[3-(4-fluoro-phenoxy)-propyl]-2-imino-2,3-dihydro-benzoimidazol-1-ylmethyl}-benzylamino)-acetamide] yielded an IC50 of 11 to 100 µM. In the case of N=c1n(CCCOc2ccc(F)cc2)c2ccccc2n1Cc1ccc(CN2CCN(Cc3ccccc3)CC2)cc1 [Compound 46, 1-[4-(4-Benzyl-piperazin-1-ylmethyl)-benzyl]-3-[3-(4-fluoro-phenoxy)-propyl]-1,3-dihydro-benzoimidazol-2-ylideneamine], the IC50 was less than 10 µM. Compound N=c1n(CCCOc2ccc(F)cc2)c2ccccc2n1Cc1ccc(CN2CCN(Cc3cccc(Cl)c3)CC2)cc1 [Compound 47, 1-{4-[4-(3-Chloro-benzyl)-piperazin-1-ylmethyl]-benzyl}-3-[3-(4-fluoro-phenoxy)-propyl]-1,3-dihydro-benzoimidazol-2-ylideneamine] has an IC50 of less than 10 µM. In the case of N=c1n(CCCOc2ccc(F)cc2)c2ccccc2n1Cc1ccc(CN2CCN(Cc3ccccc3Cl)CC2)cc1 [Compound 48, 1-{4-[4-(2-Chloro-benzyl)-piperazin-1-ylmethyl]-benzyl}-3-[3-(4-fluoro-phenoxy)-propyl]-1,3-dihydro-benzoimidazol-2-ylideneamine], the IC50 was 11 to 100 µM. Compound N=c1n(CCCOc2ccc(F)cc2)c2ccccc2n1Cc1ccc(CN2CCN(Cc3ccccc3-c3ccccc3)CC2)cc1 [Compound 49, 1-[4-(4-Biphenyl-2-ylmethyl-piperazin-1-ylmethyl)-benzyl]-3-[3-(4-fluoro-phenoxy)-propyl]-1,3-dihydro-benzoimidazol-2-ylideneamine] has an IC50 of 11 to 100 µM. N=c1n(CCCOc2ccc(F)cc2)c2ccccc2n1Cc1ccc(CNCC(=O)Nc2cccc(Cl)c2)cc1 [Compound 50, N-(3-Chloro-phenyl)-2-(4-{3-[3-(4-fluoro-phenoxy)-propyl]-2-imino-2,3-dihydro-benzoimidazol-1-ylmethyl}-benzylamino)-acetamide] gave an IC50 of 11 to 100 µM. Work on N=c1n(CCCOc2ccc(F)cc2)c2ccccc2n1Cc1ccc(CNCC(=O)Nc2ccccc2)cc1 [Compound 51, 2-(4-{3-[3-(4-Fluoro-phenoxy)-propyl]-2-imino-2,3-dihydro-benzoimidazol-1-ylmethyl}-benzylamino)-N-phenyl-acetamide] yielded an IC50 of 11 to 100 µM. For N=c1n(CCCOc2ccc(F)cc2)c2ccccc2n1Cc1ccc(N2CCN(Cc3ccccc3)CC2)nc1 [Compound 53, 1-[6-(4-Benzyl-piperazin-1-yl)-pyridin-3-ylmethyl]-3-[3-(4-fluoro-phenoxy)-propyl]-1,3-dihydro-benzoimidazol-2-ylideneamine], the IC50 was 11 to 100 µM. N=c1n(CCCOc2ccc(F)cc2)c2ccccc2n1Cc1ccc(N2CCN(Cc3cccc(Cl)c3)CC2)nc1 [Compound 54, 1-{6-[4-(3-Chloro-benzyl)-piperazin-1-yl]-pyridin-3-ylmethyl}-3-[3-(4-fluoro-phenoxy)-propyl]-1,3-dihydro-benzoimidazol-2-ylideneamine] was tested, and the IC50 was 11 to 100 µM. N=c1n(CCCOc2ccc(F)cc2)c2ccccc2n1Cc1ccc(N2CCN(Cc3ccc(Cl)cc3)CC2)nc1 [Compound 55, 1-{6-[4-(4-Chloro-benzyl)-piperazin-1-yl]-pyridin-3-ylmethyl}-3-[3-(4-fluoro-phenoxy)-propyl]-1,3-dihydro-benzoimidazol-2-ylideneamine] showed an IC50 of 11 to 100 µM. With N=c1n(CCCOc2ccc(F)cc2)c2ccccc2n1Cc1ccc(N2CCN(Cc3ccccc3-c3ccccc3)CC2)nc1 [Compound 56, 1-[6-(4-Biphenyl-2-ylmethyl-piperazin-1-yl)-pyridin-3-ylmethyl]-3-[3-(4-fluoro-phenoxy)-propyl]-1,3-dihydro-benzoimidazol-2-ylideneamine] the IC50 was less than 10 µM. Work on N=c1n(CCCOc2ccc(F)cc2)c2ccccc2n1Cc1ccc(N2CCN(Cc3ccccc3Cl)CC2)nc1 [Compound 57, 1-{6-[4-(2-Chloro-benzyl)-piperazin-1-yl]-pyridin-3-ylmethyl}-3-[3-(4-fluoro-phenoxy)-propyl]-1,3-dihydro-benzoimidazol-2-ylideneamine] yielded an IC50 of 11 to 100 µM. In the case of Cc1ccc2c(c1)n(Cc1ccc(Br)cc1)c(=N)n2CCCOc1ccc(F)cc1 [Compound 58, 3-(4-Bromo-benzyl)-1-[3-(4-fluoro-phenoxy)-propyl]-5-methyl-1,3-dihydro-benzoimidazol-2-ylideneamine], the IC50 was 11 to 100 µM. N=c1n(CCCOc2ccc(F)cc2)c2ccc(F)cc2n1Cc1ccc(Br)cc1 [Compound 59, 3-(4-Bromo-benzyl)-5-fluoro-1-[3-(4-fluoro-phenoxy)-propyl]-1,3-dihydro-benzoimidazol-2-ylideneamine] showed an IC50 of 11 to 100 µM. For N=c1n(CCCOc2ccc(F)cc2)c2cc(C(F)(F)F)ccc2n1Cc1ccc(Br)cc1 [Compound 60, 1-(4-Bromo-benzyl)-3-[3-(4-fluoro-phenoxy)-propyl]-5-trifluoromethyl-1,3-dihydro-benzoimidazol-2-ylideneamine], the IC50 was 11 to 100 µM. N=c1n(CCCOc2ccc(F)cc2)c2cc(F)ccc2n1Cc1ccc(Br)cc1 [Compound 61, 1-(4-Bromo-benzyl)-5-fluoro-3-[3-(4-fluoro-phenoxy)-propyl]-1,3-dihydro-benzoimidazol-2-ylideneamine] showed an IC50 of 11 to 100 µM.
